According to DBAASP:
Converted amounts (≈) assume the structure as drawn. Values belong to the compound of their own block, whether it stands above or below them.

How the values were obtained:
Assay in all cases: ≥ marks a high value that may be exact or a test limit, other limits are often not marked, values filed in µg/mL are converted to µM
[1] = test system: Pseudomonas aeruginosa KCTC 1637
[2] = test system: Staphylococcus epidermidis KCTC 1917
[3] = test system: Candida albicans KCTC 7270
[4] = test system: Staphylococcus aureus KCTC 1621
[5] = test system: Saccharomyces cerevisiae KCTC 7296
[6] = test system: Salmonella typhimurium KCTC 1926
[7] = test system: Bacillus subtilis KCTC 1918
[8] = test system: Trichosporon beigelii KCTC 7707
[9] = test system: Escherichia coli KCTC 1682
[10] = test system: Candida albicans ATCC 90028
[11] = test system: Pseudomonas aeruginosa ATCC 27853
[12] = test system: Candida parapsilosis ATCC 22019
[13] = test system: Escherichia coli ATCC 25922
Candida krusei ATCC 6258 = test system: Candida krusei ATCC 6258
[14] = test system: Cryptococcus neoformans ATCC 90012
[15] = test system: Staphylococcus aureus ATCC 25923
Enterococcus faecium = test system: Enterococcus faecium
[16] = test system: Enterococcus faecalis ATCC 29212
[17] = test system: Staphylococcus aureus K35
[18] = test system: Staphylococcus aureus K52
[19] = test system: Pseudomonas syringae pv. syringae EPS 94
[20] = test system: Xanthomonas campestris pv. Vesicatoria 2133-2
[21] = test system: Erwinia amylovora PMV 6076
[22] = test system: Vibrio anguillarum FT1801
[23] = test system: Candida albicans ATCC 10231
Botrytis cinerea 101 = test system: Botrytis cinerea 101
[24] = test system: Staphylococcus aureus ATCC 9144
Penicillium roqueforti = test system: Penicillium roqueforti
[25] = test system: Corynebacterium glutamicum ATCC 13032
Saccharomyces cerevisiae = test system: Saccharomyces cerevisiae
[26] = test system: Acinetobacter baumannii NM35
[27] = test system: Pseudomonas aeruginosa Pa1409
[28] = test system: Acinetobacter baumannii NM124
[29] = test system: Pseudomonas aeruginosa Pa4216
[30] = test system: Acinetobacter baumannii NM75
Escherichia coli Ec513 = test system: Escherichia coli Ec513
Acinetobacter baumannii = test system: Acinetobacter baumannii
[31] = test system: Acinetobacter baumannii Ab5755
[32] = test system: Escherichia coli ATCC 25726
[33] = test system: Acinetobacter baumannii Ab1408
[34] = test system: Acinetobacter baumannii NM109
[35] = test system: Acinetobacter baumannii Ab5753
[36] = test system: Staphylococcus aureus Sa1390
[37] = test system: Acinetobacter baumannii NM8

MIC [1]: 1.56 µM (≈ 2.69 µg/mL)
MIC [2]: 3.12 µM (≈ 5.38 µg/mL)
MIC [3]: 17.7 µM (≈ 30.4 µg/mL)
MIC [4]: 1.56 µM (≈ 2.69 µg/mL)
MIC [5]: 6.25 µM (≈ 10.8 µg/mL)
MIC [6]: 0.78 µM (≈ 1.34 µg/mL)
MIC [7]: 1.56 µM (≈ 2.69 µg/mL)
MIC [8]: 1.56 µM (≈ 2.69 µg/mL)
MIC [9]: 3.12 µM (≈ 5.38 µg/mL)
Compound: CC[C@H](C)[C@H](NC(=O)[C@H](CCCCN)NC(=O)[C@H](CO)NC(=O)[C@H](Cc1ccccc1)NC(=O)[C@H](CC(C)C)NC(=O)[C@H](CCCCN)NC(=O)[C@H](CCC(=O)O)NC(=O)[C@H](CC(C)C)NC(=O)[C@H](CCCN=C(N)N)NC(=O)[C@H](CCCCN)NC(=O)[C@H](Cc1ccccc1)NC(=O)[C@H](Cc1c[nH]c2ccccc12)NC(=O)[C@@H](N)CCCCN)C(N)=O [KWFKRLEKLFSKI]

MIC [10]: 16 µM (≈ 36.9 µg/mL)
MIC [11]: 32 µM (≈ 73.8 µg/mL)
MIC [12]: 31 µM (≈ 71.4 µg/mL)
MIC [13]: 8 µM (≈ 18.4 µg/mL)
MIC (Candida krusei ATCC 6258): 31 µM (≈ 71.4 µg/mL)
MIC [14]: 31 µM (≈ 71.4 µg/mL)
Compound: CC[C@H](C)[C@H](NC(=O)[C@H](Cc1ccccc1)NC(=O)[C@H](CC(N)=O)NC(=O)[C@H](CCCCN)NC(=O)[C@H](C)NC(=O)[C@@H](NC(=O)[C@H](CC(N)=O)NC(=O)[C@H](Cc1ccccc1)NC(=O)[C@H](C)NC(=O)[C@H](C)NC(=O)[C@H](CCCCN)NC(=O)CNC(=O)[C@H](CCCCN)NC(=O)[C@H](CCCCN)NC(=O)[C@H](CCCCN)NC(=O)[C@H](C)NC(=O)[C@@H](NC(=O)[C@H](CC(=O)O)NC(=O)[C@H](CC(C)C)NC(=O)[C@H](Cc1c[nH]c2ccccc12)NC(=O)CN)C(C)C)C(C)C)C(N)=O [GWLDVAKKKGKAAFNVAKNFI]

MIC [15]: > 168 µM
MIC (Enterococcus faecium): ≥ 99.8 µM
MIC [16]: > 168 µM
MIC [17]: ≥ 99.8 µM
MIC [18]: ≥ 99.8 µM
Compound: CC(C)C[C@H](NC(=O)[C@H](C)NC(=O)CNC(=O)[C@H](CO)NC(=O)[C@H](CC(C)C)NC(=O)[C@@H](NC(=O)[C@H](CCCN=C(N)N)NC(=O)CNC(=O)[C@H](C)NC(=O)[C@H](CC(C)C)NC(=O)[C@@H]1CCCN1C(=O)[C@H](CC(C)C)NC(=O)[C@@H](N)Cc1ccccc1)C(C)C)C(N)=O [FLPLAGRVLSGAL]

MIC [19]: 3.54 µM (≈ 6.74 µg/mL)
MIC [20]: 1.77 µM (≈ 3.37 µg/mL)
MIC [21]: 3.54 µM (≈ 6.74 µg/mL)
Compound: CC[C@H](C)[C@H](NC(=O)[C@H](CCCCN)NC(=O)[C@H](CCCCN)NC(=O)[C@H](Cc1ccccc1)NC(=O)[C@H](CC(C)C)NC(=O)[C@H](CCCCN)NC(=O)[C@@H](N)CCCCN)C(=O)N[C@@H](CC(C)C)C(=O)N[C@@H](CCCCN)C(=O)N[C@@H](Cc1ccc(O)cc1)C(=O)N[C@@H](CC(C)C)C(=O)N[C@@H](CCCCN)C(=O)N[C@@H](CC(=O)O)C(=O)N[C@@H](CCC(=O)O)C(=O)N[C@@H](CC(C)C)C(=O)O [KKLFKKILKYLKDEL]

MIC [22]: ≥ 100 µM
MIC [23]: > 100 µM
MIC (Botrytis cinerea 101): ≥ 100 µM
MIC [24]: ≥ 100 µM
MIC (Penicillium roqueforti): ≥ 100 µM
MIC [25]: ≥ 100 µM
MIC [13]: > 100 µM
MIC (Saccharomyces cerevisiae): ≥ 100 µM
Compound: CC(C)C[C@H](NC(=O)[C@H](C)NC(=O)[C@H](Cc1cnc[nH]1)NC(=O)[C@H](C)NC(=O)[C@H](C)NC(=O)[C@H](C)NC(=O)[C@H](CS)NC(=O)[C@H](C)NC(=O)CNC(=O)[C@H](CCCN=C(N)N)NC(=O)[C@H](CC(C)C)NC(=O)[C@@H](N)CC(=O)O)C(=O)O [DLRGACAAAHAL]

MIC [26]: 3 µM (≈ 7 µg/mL)
MIC [27]: 13.7 µM (≈ 32 µg/mL)
MIC [28]: 1.5 µM (≈ 3.5 µg/mL)
MIC [15]: 12.5 µM (≈ 29.1 µg/mL)
MIC [29]: 13.7 µM (≈ 32 µg/mL)
MIC [30]: 3 µM (≈ 7 µg/mL)
MIC [10]: 6 µM (≈ 14 µg/mL)
MIC (Escherichia coli Ec513): 3.43 µM (≈ 8 µg/mL)
MIC (Acinetobacter baumannii): 6.25 µM (≈ 14.6 µg/mL)
MIC [31]: 1.71 µM (≈ 4 µg/mL)
MIC [32]: 6.25 µM (≈ 14.6 µg/mL)
MIC [33]: 6.86 µM (≈ 16 µg/mL)
MIC [34]: 1.5 µM (≈ 3.5 µg/mL)
MIC [35]: 3.43 µM (≈ 8 µg/mL)
MIC [36]: 6.86 µM (≈ 16 µg/mL)
MIC [37]: 3 µM (≈ 7 µg/mL)
Compound: CC[C@H](C)[C@H](NC(=O)CN)C(=O)N[C@@H](Cc1c[nH]c2ccccc12)C(=O)N[C@@H](CCCCN)C(=O)N[C@H](C(=O)N[C@H](C(=O)N[C@@H](CCCCN)C(=O)N[C@@H](CO)C(=O)N[C@@H](CCSC)C(=O)NCC(=O)N[C@@H](CCCCN)C(=O)N[C@H](C(=O)N[C@@H](Cc1ccccc1)C(=O)N[C@@H](C)C(=O)NCC(=O)N[C@@H](CCCCN)C(=O)N[C@H](C(=O)N[C@@H](CC(C)C)C(=O)N[C@@H](CCC(N)=O)C(=O)N[C@@H](CC(N)=O)C(=O)N[C@@H](CC(C)C)C(N)=O)[C@@H](C)CC)C(C)C)[C@@H](C)CC)[C@@H](C)O [GIWKTIKSMGKVFAGKILQNL]
